Experimental data from patent US6849624B2, “Aromatic and heteroaromatic substituted amides” (Hoffmann-La Roche Inc., priority 2001, dated 2005).

How the values were obtained:
human NK1 receptor [1] = target: T1, human NK1 receptor (Homo sapiens, UniProt P25103); assay: [3H]substance P binding to human NK1 receptor in transfected CHO cells; settings: recombinant human NK1 receptor in CHO cells, [3H]substance P 0.6 nM; read-out: affinity (pKi) for the human NK1 receptor (converted)
T1 construct: expressed in transfected cells; host or cells: CHO cells (Semliki virus expression system)
T1 sequence (P25103 whole entry): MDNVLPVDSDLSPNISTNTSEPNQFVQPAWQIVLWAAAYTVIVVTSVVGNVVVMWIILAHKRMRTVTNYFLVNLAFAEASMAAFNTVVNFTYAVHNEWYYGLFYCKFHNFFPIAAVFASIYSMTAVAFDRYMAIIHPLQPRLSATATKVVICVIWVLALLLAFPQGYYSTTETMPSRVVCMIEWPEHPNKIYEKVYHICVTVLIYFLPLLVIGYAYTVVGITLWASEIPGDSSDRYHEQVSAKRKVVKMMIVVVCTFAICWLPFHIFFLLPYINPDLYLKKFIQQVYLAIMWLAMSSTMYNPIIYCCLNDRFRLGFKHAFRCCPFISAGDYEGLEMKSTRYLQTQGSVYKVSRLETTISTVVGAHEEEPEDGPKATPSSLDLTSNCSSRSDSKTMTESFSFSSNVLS
Description: The affinities of the compounds 2-(3,5-bis-trifluoromethyl-phenyl)-N-[6-(1,1-dioxo-1λ^6-thiomorpholin-4-yl)-4-o-tolyl-pyridin-3-yl]-N-methyl-isobutyramide and 2-(3,5-bis-trifluoromethyl-phenyl)-N-[6-(1,1-dioxo-1λ^6-thiomorpholin-4-yl)-4-(4-fluoro-2-methyl-phenyl)-pyridin-3-yl]-N-methyl-isobutyramide for the human NK1 receptor were evaluated in Chinese Hamster Ovary (CHO) cells transfected with the human NK1 receptor (using the Semliki Virus expression system) and radiolabelled with [^3H]substance P (final concentration 0.6 nM). Binding assays were performed in HEPES buffer (50 mM, pH 7.4) containing BSA (0.04%), leupeptin (8 μg/ml), MnCl2 (3 mM) and phosphoramidon (2 μM). Binding assays consisted of 250 μl of membrane suspension (1.25×10^5 cells/assay tube), […] of buffer of displacing agent and 125 μl of [^3H] substance P. Displacement curves were determined with at least seven concentrations of the compound. The assay tubes were incubated for 60 min at room temperature after which time the tube contents were rapidly filtered under vacuum through GF/C filters presoaked for 60 min with PEI (0.3%) with 2×2 ml washes of HEPES buffer (50 mM, pH 7.4). The radioactivity retained on the filters was measured by scintillation counting. All assays were performed in triplicate in at least 2 separate experiments. […]

human NK1 receptor [2] = target: T1, human NK1 receptor; assay: substance P induced Ca2+ influx in CHO cells expressing recombinant human NK1 receptor (FLIPR); assay type: cell-based; settings: increasing concentrations, CHO cells with recombinant human NK1 receptor
Text: The activity in vitro was examined by studying its effect on substance P induced Ca^2+ influxes in CHO cells expressing the recombinant human NK1 receptor. In these cells, substance P causes a concentration dependent influx of Ca^2+ which can be measured using FLIPR technology.

[3] = pharmacokinetic parameters in dogs; settings: dog, in vivo; for Vd: read-out: volume of distribution
Text: (§1) The pharmacokinetic parameters of both compounds have been evaluated in both rats and dogs.

NK1 receptor = target: T2, NK1 receptor (Meriones unguiculatus, UniProt Q5DUB1); assay: foot-tapping behavior induced in Gerbils by i.c.v. injection of an NK1 receptor agonist; assay type: in vivo; settings: Gerbil; for dose calculated to inhibit 50% of the foot-tapping behavior: oral administration; for total plasma concentration required to completely block the foot-tapping behavior: total plasma level
T2 construct: from tissue; host or cells: living gerbils (brain, i.c.v. agonist injection)
T2 sequence (Q5DUB1 whole entry): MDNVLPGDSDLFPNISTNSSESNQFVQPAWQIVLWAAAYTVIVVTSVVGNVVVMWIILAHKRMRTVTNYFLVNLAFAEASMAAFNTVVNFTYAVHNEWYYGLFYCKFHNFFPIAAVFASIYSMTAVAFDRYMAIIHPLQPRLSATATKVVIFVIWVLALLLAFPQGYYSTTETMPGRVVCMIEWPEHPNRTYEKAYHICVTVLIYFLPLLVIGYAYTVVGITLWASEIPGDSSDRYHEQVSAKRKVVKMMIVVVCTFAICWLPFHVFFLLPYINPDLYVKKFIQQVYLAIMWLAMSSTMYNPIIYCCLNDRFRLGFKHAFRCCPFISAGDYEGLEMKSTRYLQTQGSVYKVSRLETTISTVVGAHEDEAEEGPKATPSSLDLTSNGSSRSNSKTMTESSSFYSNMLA
Description: In vivo 2-(3,5-bis-trifluoromethyl-phenyl)-N-[6-(1,1-dioxo-1λ^6-thiomorpholin-4-yl)-4-o-tolyl-pyridin-3-yl]-N-methyl-isobutyramide antagonizes foot-tapping behavior induced in Gerbils with intracerebroventricular (i.c.v.) injections of an NK1 receptor agonist. The dose for this compound calculated to inhibit 50% of the foot-tapping behavior following oral administration was 0.8 mg/kg. […] Similarly, 2-(3,5-bis-trifluoromethyl-phenyl)-N-[6-(1,1-dioxo-1λ^6-thiomorpholin-4-yl)-4-(4-fluoro-2-methyl-phenyl)-pyridin-3-yl]-N-methyl-isobutyramide also antagonized NK1 agonist-induced foot-tapping in Gerbils. The dose for this compound calculated to inhibit 50% of the foot-tapping behavior following oral administration was 0.1 mg/kg. The total plasma levels that are required to completely antagonize this behavior are less than 10 ng/ml.

[4] = pharmacokinetic parameters in rats; settings: rat, in vivo; for bioavailability: po; for half-life: read-out: terminal half-life (converted); for Vd: read-out: volume of distribution
Text: as §1

Ki (human NK1 receptor [1]) [nM] | clearance [3] [mL/min/kg] | half-life [3] [h] | Vd [3] [L/kg] | dose calculated to inhibit 50% of the foot-tapping behavior (NK1 receptor) [mg/kg] | total plasma concentration required to completely block the foot-tapping behavior (NK1 receptor) | clearance [4] [mL/min/kg] | bioavailability [4] [%] | half-life [4] [h] | Vd [4] [L/kg] | melting point [°C] | SMILES | effect on substance P induced Ca2+ influx (human NK1 receptor [2])
0.316 | 1.4 | 56 | 1.5 | 0.1 | less than 10 ng/ml | 0.3 to 1.2 | 61 | 21 | 0.7 | – | Cc1cc(F)ccc1-c1cc(N2CCS(=O)(=O)CC2)ncc1N(C)C(=O)C(C)(C)c1cc(C(F)(F)F)cc(C(F)(F)F)c1 [2-(3,5-Bis-trifluoromethyl-phenyl)-N-[6-(1,1-dioxo-1λ^6-thiomorpholin-4-yl)-4-(4-fluoro-2-methyl-phenyl)-pyridin-3-yl]-N-methyl-isobutyramide] | inhibited the substance P induced Ca^2+ influx
1.26 | 5 | 8 | 4 | 0.8 | 10 ng/mL | 4.7 | 18 | 9 | 4 | 200 to 201 | Cc1ccccc1-c1cc(N2CCS(=O)(=O)CC2)ncc1N(C)C(=O)C(C)(C)c1cc(C(F)(F)F)cc(C(F)(F)F)c1 [2-(3,5-Bis-trifluoromethyl-phenyl)-N-[6-(1,1-dioxo-1λ^6-thiomorpholin-4-yl)-4-o-tolyl-pyridin-3-yl]-N-methyl-isobutyramide] | inhibited the substance P induced Ca^2+ influx
